Source: publication PMC8983499 (Cancer Research, 2022)

Legend:
Assay type in all cases: in vivo
Nephrotoxicity study = conditions: BALB/cJ mice, intravenous, 3 days after drug administration, ELISA, n = 3/group
Toxicity profile = conditions: healthy BALB/cJ mice, intravenous weekly for 3 weeks, DM1 and DM1–Bdd 0.75 mg/kg of drug content, CIS 10 mg/kg
[1] = Fluorescence imaging of Cy-peptide analogues; conditions: SHO mice, tail-vein injection 0.5 nmol, images 1 and 4 hours; in words

| Compound | KIM-1 and/or NGAL in urine (Nephrotoxicity study) | serum biochemical analysis for liver injury and renal function (Toxicity profile) | hematology (blood cell counts and morphologic features) (Toxicity profile; n = 4/group) | elimination and organ uptake by fluorescence imaging [1] |
| --- | --- | --- | --- | --- |
| COc1cc2cc(c1Cl)N(C)C(=O)C[C@H](OC(=O)[C@H](C)N(C)C(=O)CCS)[C@]1(C)O[C@H]1[C@H](C)[C@@H]1C[C@@](O)(NC(=O)O1)[C@H](OC)/C=C/C=C(\C)C2 [DM1, N2'-deacetyl-N2'-(3-mercapto-1-oxopropyl)-maytansine] | continued induction | induced hepatic and renal toxicity | reticulocytosis without apparent anemia |  |
| Nc1ccn([C@@H]2O[C@H](CO)[C@@H](O)C2(F)F)c(=O)n1 [GEM, gemcitabine] | continued induction |  |  |  |
| Cyanine5.5 [free Cy] |  |  |  | mainly taken up by liver and/or other organs |
| CO[C@@]12[C@H](COC(N)=O)C3=C(C(=O)C(C)=C(N)C3=O)N1C[C@@H]1N[C@@H]12 [MIT, mitomycin] | continued induction |  |  |  |
